The format of series [1] is physicochemical. The method, then:
Radio-HPLC Analytical Method: Eluent A: Water+0.1% TFA; Eluent B: ACN+0.1% TFA; Column temperature: 25° C.; Flow: 1.0 mL/min; Column: […] Gradient: hold 10% B for 1 min, from 10 to 80% B in 8 min, hold 80% B for 2 min, from 80 to 15% B in 1 min. Radio-iTLC Analytical Method: […] For Lu-177 and Ga-68, the radiotracer-spotted iTLC plates were directly read in a radio-TLC scanner after developing in a sodium citrate 0.1M (pH 4.6) mobile phase. Rf([^177Lu/^68Ga]Lu/Ga-labeled compounds)=0.0-0.5 and Rf (unchelated ^177Lu^3+/^68Ga^3+)=0.5-1.0. The initial radiochemical purity of the [^177Lu]Lu-labeled compounds was analyzed by […] and […] and the stability in solution at 24° C. was evaluated after the end of synthesis by radio-HPLC.

Series [2] addresses human EGFR (Homo sapiens, UniProt P00533). Nature of the series: SPR selectivity over close protein homologs, EGFR. The series is classed as binding. Particulars: protein homolog immobilized on a CM5 chip.
For series [3], the target named is human HER3 (Homo sapiens, UniProt P21860). Kind of series: SPR selectivity over close protein homologs, HER3. Particulars: protein homolog immobilized on a CM5 chip. The class given is binding.
Series [4] addresses T1, mouse HER2 (23-653) (Mus musculus, UniProt P70424). Nature of the series: TR-FRET competition assay for peptide potency, mouse HER2. The series is classed as binding. Set-up: mouse HER2 (23-653) using a Cy5 labeled peptide as a probe; made in house; host or cells: mammalian cells. Particulars: TR-FRET competition with Cy5 labeled peptide probe, 0.1 nM mouse HER2, 24 h incubation; read-out: moHER2 TR-FRET IC50. In general terms: In TR-FRET formats the signal depends on donor and acceptor labels being close together.

Series [5] addresses human Herstatin (a soluble truncated HER2 protein) (Homo sapiens, UniProt P04626). Nature of the series: SPR selectivity over close protein homologs, Herstatin. The class given is binding. The conditions noted are these: protein homolog immobilized on a CM5 chip.
The target in series [6] is T1, mouse HER2 (23-653). Nature of the series: Surface plasmon resonance (SPR) for assessment of peptide affinity, mouse HER2. Further details: mouse HER2 (23-653) using a Cy5 labeled peptide as a probe; made in house. The conditions noted are these: SPR, mouse HER2 extracellular domain, 25° C., 1:1 binding model; read-out: moHER2-SPR-ONC KD. The series is classed as binding. From the text:
Each protein was immobilized either onto a SA sensorchip (Cytiva, BR-1005-31) or CM5 sensorchip (Cytiva, BR-1005-30) to a density of 800-2000 RU.
Target sequence in this assay (P70424 23-653): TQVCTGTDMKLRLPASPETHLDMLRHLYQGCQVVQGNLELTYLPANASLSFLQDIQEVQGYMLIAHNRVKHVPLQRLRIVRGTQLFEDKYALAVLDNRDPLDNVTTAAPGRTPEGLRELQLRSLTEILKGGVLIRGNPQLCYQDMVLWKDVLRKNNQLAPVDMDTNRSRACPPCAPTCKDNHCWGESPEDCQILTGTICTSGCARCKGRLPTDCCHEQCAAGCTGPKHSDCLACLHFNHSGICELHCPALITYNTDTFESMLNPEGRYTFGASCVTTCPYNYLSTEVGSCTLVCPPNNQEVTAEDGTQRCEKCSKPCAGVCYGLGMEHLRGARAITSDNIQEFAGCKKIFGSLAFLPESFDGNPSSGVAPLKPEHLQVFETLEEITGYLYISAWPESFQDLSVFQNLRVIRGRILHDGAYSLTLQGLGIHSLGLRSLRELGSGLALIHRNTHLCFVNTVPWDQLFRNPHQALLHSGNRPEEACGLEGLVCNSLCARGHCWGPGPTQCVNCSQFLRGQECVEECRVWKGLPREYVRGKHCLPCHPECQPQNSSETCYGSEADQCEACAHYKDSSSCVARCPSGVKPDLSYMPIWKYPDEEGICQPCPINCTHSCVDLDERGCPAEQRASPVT

Series [7] deals with T2, human HER2 (23-652) (Homo sapiens, UniProt P04626). Kind of series: TR-FRET competition assay for peptide potency, human HER2. The series is classed as binding. Set-up: towards human HER2 (23-652) and mouse HER2 (23-653); made in house; host or cells: mammalian cells. The conditions noted are these: read-out: huHER2 TR-FRET IC50.
The target of series [8] is T2, human HER2 (23-652). Nature of the series: Surface plasmon resonance (SPR) for assessment of peptide affinity, human HER2. The class given is binding. Further details: towards human HER2 (23-652) and mouse HER2 (23-653); made in house. Particulars: SPR, human HER2 extracellular domain, 25° C., 1:1 binding model; read-out: huHER2-SPR-ONC KD. The essentials: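 Binding kinetics fitted from sensorgrams with 280 s peptide association then 3000 s dissociation (30 uL/min), using HER2 (23-652) either directly immobilized (SA/CM5) or anti-Fc-captured; 3 M magnesium chloride used for regeneration.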

For series [9], the target named is human HER4 (Homo sapiens, UniProt Q15303). Kind of series: SPR selectivity over close protein homologs, HER4. The class given is binding. Particulars: protein homolog immobilized on a CM5 chip.
The mark [10] stands for this setting: amide bond, 30-membered ring, PyAOP/DIEA, DMF, resin, […], 50.0 °C, with chain assembly.

Read-outs that look alike come from different tables or passages of the source.

Sequence of human EGFR (P00533 25-1210): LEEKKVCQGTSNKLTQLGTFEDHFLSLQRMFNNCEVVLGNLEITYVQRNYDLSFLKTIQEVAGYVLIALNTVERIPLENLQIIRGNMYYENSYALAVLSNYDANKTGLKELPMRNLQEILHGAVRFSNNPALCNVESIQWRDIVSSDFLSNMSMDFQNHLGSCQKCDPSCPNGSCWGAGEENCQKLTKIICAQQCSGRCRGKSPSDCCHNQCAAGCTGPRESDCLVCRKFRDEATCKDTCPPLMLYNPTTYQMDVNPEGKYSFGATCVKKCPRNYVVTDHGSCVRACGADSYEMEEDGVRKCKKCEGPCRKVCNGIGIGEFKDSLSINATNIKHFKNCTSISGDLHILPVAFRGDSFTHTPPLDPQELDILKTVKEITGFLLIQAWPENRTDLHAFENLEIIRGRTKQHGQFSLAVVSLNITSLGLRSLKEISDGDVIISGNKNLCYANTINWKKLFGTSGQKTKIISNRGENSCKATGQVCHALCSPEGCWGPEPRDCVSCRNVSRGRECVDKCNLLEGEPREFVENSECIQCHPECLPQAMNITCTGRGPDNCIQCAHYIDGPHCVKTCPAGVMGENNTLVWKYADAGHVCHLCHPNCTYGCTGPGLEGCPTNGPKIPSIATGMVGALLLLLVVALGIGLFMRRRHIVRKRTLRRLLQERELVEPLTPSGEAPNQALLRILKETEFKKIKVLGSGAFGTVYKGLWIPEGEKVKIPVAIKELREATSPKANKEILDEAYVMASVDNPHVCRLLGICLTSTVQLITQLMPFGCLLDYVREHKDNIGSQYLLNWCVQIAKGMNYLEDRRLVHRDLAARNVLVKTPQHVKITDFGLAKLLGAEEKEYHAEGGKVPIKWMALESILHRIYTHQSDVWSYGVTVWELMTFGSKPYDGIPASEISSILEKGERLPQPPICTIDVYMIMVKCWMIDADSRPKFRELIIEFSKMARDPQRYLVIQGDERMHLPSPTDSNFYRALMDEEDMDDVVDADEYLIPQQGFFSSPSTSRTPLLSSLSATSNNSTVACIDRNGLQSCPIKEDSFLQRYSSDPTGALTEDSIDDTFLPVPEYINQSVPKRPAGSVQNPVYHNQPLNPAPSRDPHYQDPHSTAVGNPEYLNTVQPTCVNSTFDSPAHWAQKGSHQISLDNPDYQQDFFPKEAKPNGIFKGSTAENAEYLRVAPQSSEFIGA
Sequence of human HER4 (Q15303 26-1308): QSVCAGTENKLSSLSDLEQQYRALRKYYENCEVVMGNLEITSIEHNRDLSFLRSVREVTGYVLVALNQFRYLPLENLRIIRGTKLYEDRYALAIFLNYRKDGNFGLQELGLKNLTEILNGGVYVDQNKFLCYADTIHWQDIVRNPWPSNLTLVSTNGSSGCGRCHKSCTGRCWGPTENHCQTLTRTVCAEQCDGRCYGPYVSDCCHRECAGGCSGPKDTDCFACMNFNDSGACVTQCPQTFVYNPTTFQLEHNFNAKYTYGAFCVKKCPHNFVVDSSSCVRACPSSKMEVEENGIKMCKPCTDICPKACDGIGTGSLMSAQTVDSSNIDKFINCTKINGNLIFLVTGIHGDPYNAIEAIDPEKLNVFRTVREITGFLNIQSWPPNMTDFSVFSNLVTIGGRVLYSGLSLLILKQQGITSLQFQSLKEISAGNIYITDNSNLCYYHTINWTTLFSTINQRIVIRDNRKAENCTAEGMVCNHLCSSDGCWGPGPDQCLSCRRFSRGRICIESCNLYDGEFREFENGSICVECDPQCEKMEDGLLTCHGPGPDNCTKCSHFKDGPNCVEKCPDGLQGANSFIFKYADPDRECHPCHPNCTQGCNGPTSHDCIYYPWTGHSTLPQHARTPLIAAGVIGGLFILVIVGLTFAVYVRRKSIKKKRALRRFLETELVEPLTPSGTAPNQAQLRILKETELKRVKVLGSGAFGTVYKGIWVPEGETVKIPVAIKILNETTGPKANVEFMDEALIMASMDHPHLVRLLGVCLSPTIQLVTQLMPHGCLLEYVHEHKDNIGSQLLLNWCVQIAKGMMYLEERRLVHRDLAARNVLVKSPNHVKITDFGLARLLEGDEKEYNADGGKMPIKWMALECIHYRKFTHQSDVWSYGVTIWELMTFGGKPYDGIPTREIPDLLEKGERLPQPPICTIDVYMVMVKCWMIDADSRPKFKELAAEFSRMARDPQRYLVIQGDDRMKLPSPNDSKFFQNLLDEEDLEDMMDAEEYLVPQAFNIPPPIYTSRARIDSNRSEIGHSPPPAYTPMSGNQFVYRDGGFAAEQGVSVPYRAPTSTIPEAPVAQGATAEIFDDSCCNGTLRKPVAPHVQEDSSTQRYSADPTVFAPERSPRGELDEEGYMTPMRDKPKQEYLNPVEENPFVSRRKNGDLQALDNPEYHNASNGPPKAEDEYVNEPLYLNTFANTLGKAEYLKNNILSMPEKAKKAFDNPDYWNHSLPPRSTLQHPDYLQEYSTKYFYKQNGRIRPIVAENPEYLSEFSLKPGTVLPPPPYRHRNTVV
Sequence of human HER3 (P21860 20-1342): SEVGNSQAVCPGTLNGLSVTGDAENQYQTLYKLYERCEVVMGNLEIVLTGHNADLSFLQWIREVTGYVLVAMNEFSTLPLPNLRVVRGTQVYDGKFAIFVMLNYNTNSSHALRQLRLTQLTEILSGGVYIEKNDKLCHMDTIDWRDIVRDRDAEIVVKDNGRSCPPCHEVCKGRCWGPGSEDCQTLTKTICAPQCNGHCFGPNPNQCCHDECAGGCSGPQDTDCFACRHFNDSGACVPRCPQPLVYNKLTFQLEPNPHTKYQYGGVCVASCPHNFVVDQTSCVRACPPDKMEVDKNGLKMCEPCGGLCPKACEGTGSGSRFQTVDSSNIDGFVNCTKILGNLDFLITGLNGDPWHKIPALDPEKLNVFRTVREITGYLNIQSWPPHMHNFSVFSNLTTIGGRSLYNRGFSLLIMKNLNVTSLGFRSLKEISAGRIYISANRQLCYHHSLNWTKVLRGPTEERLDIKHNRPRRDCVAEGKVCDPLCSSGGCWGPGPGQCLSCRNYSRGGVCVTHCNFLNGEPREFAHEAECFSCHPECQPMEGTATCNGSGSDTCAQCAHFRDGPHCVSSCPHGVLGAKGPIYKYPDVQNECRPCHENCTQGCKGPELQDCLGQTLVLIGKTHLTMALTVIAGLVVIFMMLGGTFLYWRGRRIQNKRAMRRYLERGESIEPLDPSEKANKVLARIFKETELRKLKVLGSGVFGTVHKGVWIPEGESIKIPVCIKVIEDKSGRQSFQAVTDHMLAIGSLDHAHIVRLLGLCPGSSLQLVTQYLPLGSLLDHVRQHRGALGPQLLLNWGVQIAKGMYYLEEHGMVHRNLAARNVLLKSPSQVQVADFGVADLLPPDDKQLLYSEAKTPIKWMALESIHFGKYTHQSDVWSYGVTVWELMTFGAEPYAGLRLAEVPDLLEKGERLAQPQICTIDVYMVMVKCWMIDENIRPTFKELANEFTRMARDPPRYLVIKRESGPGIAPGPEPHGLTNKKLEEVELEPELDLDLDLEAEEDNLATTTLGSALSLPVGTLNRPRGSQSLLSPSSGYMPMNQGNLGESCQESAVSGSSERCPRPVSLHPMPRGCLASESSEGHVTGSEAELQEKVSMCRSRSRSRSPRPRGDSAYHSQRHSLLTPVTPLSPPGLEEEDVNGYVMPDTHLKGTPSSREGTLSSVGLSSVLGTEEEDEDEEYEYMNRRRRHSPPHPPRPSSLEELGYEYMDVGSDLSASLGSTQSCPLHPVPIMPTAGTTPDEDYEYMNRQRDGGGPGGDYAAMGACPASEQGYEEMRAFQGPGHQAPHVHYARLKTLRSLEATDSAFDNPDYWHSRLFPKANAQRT

As for `CC(=O)NCCCC[C@H]1C(=O)N[C@@H](Cc2c[nH]c3ccc(O)cc23)C(=O)N[C@@H](Cc2c[nH]c3ccccc23)C(=O)N[C@@H](C2CC2)C(=O)N(C)[C@H](C(=O)N(C)[C@@H](Cc2ccc(F)cc2)C(=O)N[C@@H](CCCCNC(=O)CN2CCN(CC(=O)O)CCN(CC(=O)O)CCN(CC(=O)O)CC2)C(N)=O)CNC(=O)CCC[C@H](NC(C)=O)C(=O)N[C@H](Cc2ccc(O)cc2)C(=O)N[C@H](CO)C(=O)N(C)[C@@H](CCc2ccccc2)C(=O)N1C` [Example H4, Example B4 labelled with ^177Lu, metal not drawn], in [1], the “Radiochemical purity by radio-HPLC, stability in solution, 5 h (%)” value was determined as 98.6%; the “Radiochemical purity by radio-HPLC, stability in solution, 24 h (%)” value came out at 98.2%; the “Radiochemical purity by radio-HPLC, stability in solution, 48 h (%)” value came to 97.6%; the “Radiochemical purity by radio-HPLC, stability in solution, 72 h (%)” value was 97.8%.
Consider `CC(=O)NCCCC[C@H]1C(=O)N[C@@H](Cc2c[nH]c3ccc(O)cc23)C(=O)N[C@@H](Cc2c[nH]c3ccccc23)C(=O)N[C@@H](C2CC2)C(=O)N(C)[C@H](C(=O)N(C)[C@@H](Cc2ccc(F)cc2)C(=O)N[C@@H](CCCCNC(=O)CN2CCN(CC(=O)O)CCN(CC(=O)O)CCN(CC(=O)O)CC2)C(N)=O)CNC(=O)CCC[C@H](NC(C)=O)C(=O)N[C@H](Cc2ccc(O)cc2)C(=O)N[C@H](CO)C(=O)N(C)[C@@H](CCc2ccccc2)C(=O)N1C` [Example B4], for which the dissociation constant Kd (usually a measure of binding affinity in units of concentration) was > 6 µM in series [2]; > 6 µM in series [3]; > 6 µM in [5]; > 6000 nM in [6]; > 6000 nM in [8]; > 6 µM in series [9]. The concentration for half-maximal inhibition (IC50) in series [4] and in series [7] was > 1000 nM each time.
For `COCCOCCOCCOCCOCCOCCOCCOCCOCCOCCOCCOCCC(=O)N[C@H]1CCCC(=O)NC[C@@H](C(=O)N(C)[C@@H](Cc2ccc(F)cc2)C(=O)N[C@@H](CCCCNC(=O)CN2CCN(CC(=O)O)CCN(CC(=O)O)CCN(CC(=O)O)CC2)C(N)=O)N(C)C(=O)[C@H](C2CC2)NC(=O)[C@H](Cc2c[nH]c3ccccc23)NC(=O)[C@H](Cc2c[nH]c3ccc(O)cc23)NC(=O)[C@H](CCCCNC(C)=O)N(C)C(=O)[C@H](CCc2ccccc2)N(C)C(=O)[C@H](CO)NC(=O)[C@H](Cc2ccc(O)cc2)NC1=O` [Example B2], the Kd was > 6 µM in series [2]; > 6 µM in series [3]; > 6 µM in series [5]; 0.1 nM in series [6]; < 0.1 nM in series [8]; > 6 µM in series [9]. Besides, the figures for the IC50 in [4] and in [7] were 0.2 nM and < 0.1 nM, respectively.
On to “2-(4-(((S)-5-((S)-2-((3S,6S,9S,12S,15S,18S,21S,24S,27S)-9-((1H-indol-3-yl)methyl)-15-(4-acetamidobutyl)-27-(5,39-dioxo-43-((3aS,4S,6aR)-2-oxohexahydro-1H-thieno[3,4-d]imidazol-4-yl)-8,11,14,17,20,23,26,29,32,35-decaoxa-4,38-diazatritetracontanamido)-12-((5-hydroxy-1H-indol-3-yl)methyl)-24-(4-hydroxybenzyl)-6-((S)-1-hydroxyethyl)-21-(hydroxymethyl)-N,4,16,19-tetramethyl-5,8,11,14,17,20,23,26,30-nonaoxo-18-phenethyl-1,4,7,10,13,16,19,22,25-nonaazacyclotriacontane-3-carboxamido)-3-(4-fluorophenyl)propanamido)-6-amino-6-oxohexyl)carbamoyl)piperazin-1-yl) acetic acid TFA salt”, for which the ring closure, yield after HPLC under setting [10] came out at 0.5%.
Consider “(4R,7S,10S,13S,16S,19S,22S,25S,28R)-10-((1H-indol-3-yl)methyl)-28-amino-N—((S)-1-amino-3-(4-fluorophenyl)-1-oxopropan-2-yl)-7-cyclopropyl-13-((5-hydroxy-1H-indol-3-yl)methyl)-25-(4-hydroxybenzyl)-16,22-bis(hydroxymethyl)-N,5,17,20-tetramethyl-6,9,12,15,18,21,24,27-octaoxo-19-phenethyl-1,2-dithia-5,8,11,14,17,20,23,26-octaazacyclononacosane-4-carboxamide TFA salt”, for which the ring closure, yield after HPLC (disulfide bond, 29-membered ring, DMSO (air), DMSO/water 1/4, 1.88 mM, […]) is 26%.
In turn, “((S)-2-((3S,6S,9S,12S,15S,18S,21S,24S,27S)-9-((1H-indol-3-yl)methyl)-27-acetamido-15-(4-acetamidobutyl)-6-cyclopropyl-12-((5-hydroxy-1H-indol-3-yl)methyl)-24-(4-hydroxybenzyl)-21-(hydroxymethyl)-N,4,16,19-tetramethyl-5,8,11,14,17,20,23,26,31-nonaoxo-18-phenethyl-1,4,7,10,13,16,19,22,25-nonaazacyclohentriacontane-3-carboxamido)-3-(4-fluorophenyl) propanoyl)-L-lysine TFA Salt” gave a ring closure, yield after HPLC (amide bond, 31-membered ring, HATU/DIEA, DMF, resin, 10.0 mM, with chain assembly) of 2.4%.
“2-((1E,3E)-5-((E)-1-(6-((3-(((3S,6S,9S,12S,15S,18S,21S,24S,27S)-9-((1H-indol-3-yl)methyl)-15-(4-acetamidobutyl)-3-(((S)-1-(((S)-1-amino-6-(4-(carboxymethyl)piperazine-1-carboxamido)-1-oxohexan-2-yl)amino)-3-(4-fluorophenyl)-1-oxopropan-2-yl)(methyl)carbamoyl)-12-((5-hydroxy-1H-indol-3-yl)methyl)-24-(4-hydroxybenzyl)-6-((S)-1-hydroxyethyl)-21-(hydroxymethyl)-4,16,19-trimethyl-5,8,11,14,17,20,23,26,30-nonaoxo-18-phenethyl-1,4,7,10,13,16,19,22,25-nonaazacyclotriacontan-27-yl)amino)-3-oxopropyl)amino)-6-oxohexyl)-3,3-dimethyl-5-sulfoindolin-2-ylidene)penta-1,3-dien-1-yl)-1-ethyl-3,3-dimethyl-3H-indol-1-ium-5-sulfonate TFA salt” showed a ring closure, yield after HPLC under setting [10] of 2%.
With `CC(=O)NCCCC[C@H]1C(=O)N[C@@H](Cc2c[nH]c3ccc(O)cc23)C(=O)N[C@@H](Cc2c[nH]c3ccccc23)C(=O)N[C@@H](C2CC2)C(=O)N(C)[C@H](C(=O)N(C)[C@@H](Cc2ccc(F)cc2)C(=O)N[C@@H](CCCCNC(=O)CN2CCN(CC(=O)O)CCN(CC(=O)O)CCN(CC(=O)O)CC2)C(N)=O)CNC(=O)CCC[C@H](NC(C)=O)C(=O)N[C@@H](Cc2ccc(O)cc2)C(=O)N[C@@H](CO)C(=O)N(C)[C@@H](CCc2ccccc2)C(=O)N1C` [Example B1], the Kd was > 6 µM in [2]; > 6 µM in series [3]; > 6 µM in [5]; < 0.1 nM in series [6]; < 0.1 nM in [8]; > 6 µM in [9]. For the same compound, the IC50 in series [4] and in [7] was < 0.1 nM throughout.
Take “2-(4-(((11S,48S)-48-((S)-2-((3S,6S,9S,12S,15S,18S,21S,24S,27S)-9-((1H-indol-3-yl)methyl)-27-acetamido-15-(4-acetamidobutyl)-12-((5-hydroxy-1H-indol-3-yl)methyl)-24-(4-hydroxybenzyl)-6-((S)-1-hydroxyethyl)-21-(hydroxymethyl)-N,4,16,19-tetramethyl-5,8,11,14,17,20,23,26,30-nonaoxo-18-phenethyl-1,4,7,10,13,16,19,22,25-nonaazacyclotriacontane-3-carboxamido)-3-(4-fluorophenyl)propanamido)-11-carbamoyl-5,13,47-trioxo-1-((3aS,4S,6aR)-2-oxohexahydro-1H-thieno[3,4-d]imidazol-4-yl)-16,19,22,25,28,31,34,37,40,43-decaoxa-6,12,46-triazadopentacontan-52-yl) carbamoyl) piperazin-1-yl) acetic acid TFA salt”: under setting [10], the ring closure, yield after HPLC stood at 1.9%.

The values are drawn from patent US20250332300A1 (priority 2024, published 2025).
